Laboratory results from publication PMC4566129, “Factors Governing P-Glycoprotein-Mediated Drug–Drug Interactions at the Blood–Brain Barrier Measured with Positron Emission Tomography” (Molecular Pharmaceutics, 2015).
pIC50: −log10 of the molar value. Like-named read-outs stand apart in the source and are kept apart here. Marks after values point to notes of the source that are not given here.

What was measured:
[1] = target: T1, Abcb1a (Mus musculus, UniProt P21447); assay: Bidirectional transport assay in Abcb1a-transfected LLC cells (LLC-Abcb1a) without/with tariquidar; conditions: for pIC50: normalized TR over 6 h, estimated by sigmoidal fit
T1 sequence (P21447 whole entry): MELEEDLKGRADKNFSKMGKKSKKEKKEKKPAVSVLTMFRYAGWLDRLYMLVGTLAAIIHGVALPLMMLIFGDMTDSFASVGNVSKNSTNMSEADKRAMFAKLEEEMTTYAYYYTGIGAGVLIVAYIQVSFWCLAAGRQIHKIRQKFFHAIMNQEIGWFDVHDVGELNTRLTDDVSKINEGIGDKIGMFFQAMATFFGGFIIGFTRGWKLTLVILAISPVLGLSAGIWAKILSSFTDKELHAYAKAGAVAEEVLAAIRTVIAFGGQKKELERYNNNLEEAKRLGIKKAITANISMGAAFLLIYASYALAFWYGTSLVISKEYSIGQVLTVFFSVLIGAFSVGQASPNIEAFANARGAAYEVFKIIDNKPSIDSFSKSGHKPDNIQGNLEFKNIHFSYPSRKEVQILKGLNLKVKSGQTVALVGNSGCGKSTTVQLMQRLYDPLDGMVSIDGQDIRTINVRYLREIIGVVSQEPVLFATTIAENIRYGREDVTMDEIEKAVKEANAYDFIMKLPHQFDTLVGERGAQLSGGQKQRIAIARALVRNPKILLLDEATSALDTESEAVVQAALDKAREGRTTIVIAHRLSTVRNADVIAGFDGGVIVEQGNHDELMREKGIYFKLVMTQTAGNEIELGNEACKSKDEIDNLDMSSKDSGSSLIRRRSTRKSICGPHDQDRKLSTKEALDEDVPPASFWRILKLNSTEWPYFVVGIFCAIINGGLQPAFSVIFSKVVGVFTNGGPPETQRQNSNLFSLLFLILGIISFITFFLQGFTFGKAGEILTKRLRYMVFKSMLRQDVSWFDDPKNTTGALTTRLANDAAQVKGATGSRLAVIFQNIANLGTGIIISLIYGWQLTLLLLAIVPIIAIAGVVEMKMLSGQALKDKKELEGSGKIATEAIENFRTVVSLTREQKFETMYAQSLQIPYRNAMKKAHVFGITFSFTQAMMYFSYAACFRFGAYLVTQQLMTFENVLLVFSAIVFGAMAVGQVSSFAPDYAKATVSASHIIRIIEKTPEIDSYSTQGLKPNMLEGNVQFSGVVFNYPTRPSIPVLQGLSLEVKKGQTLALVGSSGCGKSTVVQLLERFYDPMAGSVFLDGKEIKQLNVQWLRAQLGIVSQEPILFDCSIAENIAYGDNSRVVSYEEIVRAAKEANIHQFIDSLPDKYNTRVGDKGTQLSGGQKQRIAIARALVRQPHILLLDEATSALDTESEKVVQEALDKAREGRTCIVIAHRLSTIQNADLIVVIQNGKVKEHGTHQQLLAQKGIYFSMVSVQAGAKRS
Method: LLC-PK1 cells transduced with human MDR1 (LLC-ABCB1) or murine Mdr1a (LLC-Abcb1a) were kindly provided by Prof. P. Borst and Dr. A. Schinkel (The Netherlands Cancer Institute, Amsterdam, The Netherlands).
(§1) Tariquidar or solvent was added to both compartments. […] To determine membrane integrity, transepithelial electrical resistance (TEER) and, in representative wells, [^14C]mannitol diffusion were measured with criteria for exclusion described earlier.[27]
(§2) Apparent substrate permeability (Papp) from the basolateral to the apical compartment (b–A) and vice versa (a–B) was calculated using the following equation: [drawing 1] where dQ/dt (disintegration/min) is the permeability rate of the substrate into the sample compartment, A the growth area of the monolayer, and C0 the initial substrate concentration in the donor compartment. The transport ratio (TR) was calculated by dividing Papp(b–A) by Papp(a–B). […] With Prism6 software (GraphPad Software, La Jolla, CA, USA) a sigmoidal model with variable slope was used to analyze concentration–response relationships by nonlinear regression.

[2] = tested on: LLC wild-type cells; conditions: LLC wild-type cells (data not shown)
Method: as §1, §2

[3] = target: T2, ABCB1 (Homo sapiens, UniProt P08183)
T2 sequence (P08183 whole entry): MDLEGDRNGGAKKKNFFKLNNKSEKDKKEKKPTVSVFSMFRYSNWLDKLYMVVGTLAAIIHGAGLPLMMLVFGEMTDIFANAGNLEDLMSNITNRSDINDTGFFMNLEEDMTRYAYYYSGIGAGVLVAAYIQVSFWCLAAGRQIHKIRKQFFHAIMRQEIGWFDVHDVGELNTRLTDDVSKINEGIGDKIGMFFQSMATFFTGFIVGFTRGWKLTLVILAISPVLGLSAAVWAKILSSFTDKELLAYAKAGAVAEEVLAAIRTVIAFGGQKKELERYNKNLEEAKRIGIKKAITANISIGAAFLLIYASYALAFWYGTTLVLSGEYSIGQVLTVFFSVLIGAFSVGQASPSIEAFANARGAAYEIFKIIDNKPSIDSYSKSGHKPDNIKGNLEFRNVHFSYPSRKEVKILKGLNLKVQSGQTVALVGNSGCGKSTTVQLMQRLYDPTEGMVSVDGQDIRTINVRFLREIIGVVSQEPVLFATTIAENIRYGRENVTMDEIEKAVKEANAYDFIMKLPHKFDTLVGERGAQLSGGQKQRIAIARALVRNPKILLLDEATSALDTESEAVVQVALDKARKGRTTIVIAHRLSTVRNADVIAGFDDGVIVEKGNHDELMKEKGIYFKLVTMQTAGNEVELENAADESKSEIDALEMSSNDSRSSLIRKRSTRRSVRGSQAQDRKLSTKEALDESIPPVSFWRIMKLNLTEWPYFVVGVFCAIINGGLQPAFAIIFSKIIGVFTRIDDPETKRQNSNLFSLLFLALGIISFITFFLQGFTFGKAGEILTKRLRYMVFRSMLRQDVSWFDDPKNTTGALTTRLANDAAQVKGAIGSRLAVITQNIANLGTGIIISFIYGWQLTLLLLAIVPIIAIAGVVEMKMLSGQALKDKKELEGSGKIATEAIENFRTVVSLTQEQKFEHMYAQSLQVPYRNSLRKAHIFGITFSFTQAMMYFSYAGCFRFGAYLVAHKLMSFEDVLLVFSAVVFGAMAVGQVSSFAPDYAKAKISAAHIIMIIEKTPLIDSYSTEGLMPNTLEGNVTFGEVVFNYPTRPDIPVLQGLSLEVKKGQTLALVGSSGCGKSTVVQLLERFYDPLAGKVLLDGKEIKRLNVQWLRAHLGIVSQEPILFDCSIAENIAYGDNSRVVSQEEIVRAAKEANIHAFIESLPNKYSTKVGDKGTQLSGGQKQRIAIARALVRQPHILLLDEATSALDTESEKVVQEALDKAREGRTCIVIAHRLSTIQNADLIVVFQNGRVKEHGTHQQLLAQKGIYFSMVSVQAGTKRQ

[4] = target: T1, Abcb1a; assay: PET imaging of radiotracer brain distribution (Kb,brain) in C57BL/6N wild-type, Abcb1a/1b(−/−) and Abcb1a/1b(+/−) mice and tariquidar concentration–response
Method: (§3) Animal respiratory rate and body temperature were constantly monitored (SA Instruments Inc., Stony Brook, NY, USA), and the isoflurane level was adjusted (1.5–2% in oxygen) to achieve a constant and sufficient depth of anesthesia. Anesthesia was maintained for the whole pretreatment and imaging period. Following administration, anatomical magnetic resonance imaging (MRI) was performed on a 1 T benchtop MRI (ICON, Bruker BioSpin GmbH, Ettlingen, Germany) using a modified 3D T1-weighted gradient echo sequence (T1-FLASH) and the following imaging parameters: echo time (TE) = 4.7 ms; repetition time (TR) = 27 ms; flip angle (FA) = 25°; field of view (FOV) = 7.6 × 2.6 × 2.4 cm; matrix = 380 × 130; 32 slices; slice thickness = 750 μm; total imaging time = 22 min. Following MRI, the animal bed was transferred into the gantry of a microPET scanner (Focus 220, Siemens Medical Solutions, Knoxville, TN, USA), and a 10 min transmission scan using a ^57Co point source was recorded.
(§4) After completion of the imaging procedure, a terminal blood sample was withdrawn under isoflurane anesthesia from the retro-orbital sinus vein, and the animals were sacrificed by cervical dislocation. Blood was centrifuged (17000g, 4 °C, 4 min) to obtain plasma, and whole brains were removed. […] The measured radioactivity data were corrected for radioactive decay and expressed as standardized uptake value ((radioactivity per g/injected radioactivity) × body weight). The remainder of the plasma samples was stored at −80 °C until measurement of tariquidar plasma concentrations using a previously described combined liquid chromatography tandem mass spectrometry (LC/MS) assay.[17]
(§5) Images were reconstructed using Fourier rebinning of the 3D sonograms followed by two-dimensional filtered back projection with a ramp filter, resulting in an image voxel size of 0.4 × 0.4 × 0.796 mm^3. A standard data correction protocol (normalization, attenuation, and decay correction) was applied to the PET data. The PET units were converted into units of radioactivity concentration by applying a calibration factor derived from imaging of a cylindrical phantom with a known ^11C-radioactivity concentration. Using the image analysis software Amide,[31] whole brain was manually outlined on the PET images, and time–activity curves, expressed in standardized uptake value, were derived.
(§6) Concentration–response relationships were analyzed by nonlinear regression analysis based on a sigmoidal model with variable slope using Prism 6 software.

[5] = tested on: Abcb1a; assay: as above
Method: as §3, §4, §5, §6

[6] = tested on: C57BL/6N mouse plasma; assay: Plasma protein binding (ultrafiltration) in mouse plasma; format: in vitro ADME
Method: (§7) After incubation, plasma aliquots (200 μL) were transferred to the preconditioned Amicon filters, which were centrifuged (12000g, 30 min, 25 °C). Filters and tubes were separately measured in a gamma counter, and the obtained data were decay corrected. Percent plasma protein binding was calculated as percent radioactivity in the filter relative to total radioactivity (filter and tube).

[7] = tested on: human plasma; assay: Plasma protein binding (ultrafiltration) in human plasma; format: in vitro ADME; conditions: without tariquidar
Method: as §7

[8] = short anesthesia (5 min), tariquidar 15 mg/kg, 25 min after injection
Method: (§8) In one cohort, all procedures were performed in isoflurane anesthetized (1.5–2% in oxygen) animals resulting in a total anesthesia length of 160 min (= long anesthesia). In the second cohort, pretreatment and radiotracer injection were performed in awake animals which were only shortly anesthetized prior to retro-orbital blood sampling, resulting in a total anesthesia length of 5 min (= short anesthesia). […] Blood was centrifuged to obtain plasma, and whole brains were removed. To plasma and homogenized brain tissue were added unlabeled verapamil (10 mg/mL in water, 100 μL) or N-desmethyl-loperamide (10 mg/mL in water/acetonitrile; 1/1, v/v, 100 μL), and proteins were precipitated by the addition of acetonitrile (1 μL per μL of plasma and 0.5 mL per brain). The homogenates were vortexed and then centrifuged (12000g, 5 min, 21 °C). Each supernatant (plasma, brain, 3 μL each) and diluted radiotracer solution as reference were spotted on thin-layer chromatography (TLC) plates (silica gel 60F 254 nm, 20 × 20 cm; Merck, Darmstadt, Germany), and plates were developed in ethyl acetate/triethylamine (9/1, v/v). Detection was performed by placing the TLC plates on multisensitive phosphor screens (PerkinElmer Life Sciences, Waltham, MA). The screens were scanned at 300 dpi resolution using a PerkinElmer Cyclone Plus Phosphor Imager (PerkinElmer Life Sciences).

[9] = target: T1, Abcb1a; conditions: for Kp,brain,VPM or Kp,brain,dLOP fold increase, tariquidar vs vehicle: metabolite corrected; for Kp,brain for unchanged parent tracer (Kp,brain,VPM or Kp,brain,dLOP): 25 min, corrected for radiolabeled metabolites
Method: as §8

[10] = target: Abcb1a/1b (Mus musculus, UniProt P21447); conditions: for Kp,brain: wild-type FVB/N mice, 25 min after injection
Chain of Abcb1a/1b (P21447 whole entry): as the sequence (P21447 whole entry) above
Method: Blood and brain were transferred to preweighed tubes and measured for radioactivity in a gamma counter. The measured radioactivity data were corrected for radioactive decay, and Kb,brain values were calculated.

[11] = target: T2, ABCB1; conditions: cited from earlier work
[12] = Tariquidar plasma concentration at the end of the PET scan (LC/MS); format: in vivo, mouse; conditions: 30 mg/kg iv
[13] = tested on: ABCB1; parameters: method as in PMID 20016890; conditions: rats ref 35; read-out: in vivo IC50 of tariquidar for enhancement of brain distribution of (R)-[11C]verapamil; cited from earlier work
[14] = tested on: human plasma; parameters: method as in PMID 23340958; conditions: human plasma ref 38; cited from earlier work
[15] = target: T2, ABCB1; assay: cell-based; conditions: ABCB1-transfected LLC cells, normalized TR over 6 h, estimated by sigmoidal fit

SMILES: [3H]C([3H])([3H])NC(=O)C(CCN1CCC(O)(c2ccc(Cl)cc2)CC1)(c1ccccc1)c1ccccc1 [[^3H]-N-desmethyl-loperamide]
- transport ratio (TR), Papp(b–A)/Papp(a–B) ([1]; Abcb1a-transfected LLC cells, 5 nM substrate, without tariquidar): 27.6 ± 6.5
- TR relative to TR of [3H]verapamil ([1]; Abcb1a-transfected cells): 8.6 times
- transport ratio (TR) [2]: 1.6 ± 0.03
- transport ratio (TR), Papp(b–A)/Papp(a–B) ([3]; ABCB1-transfected LLC cells, 5 nM substrate, without tariquidar): 18.5 ± 1.7
- TR relative to TR of [3H]verapamil ([3]; ABCB1-transfected cells): 5 times
- transport ratio relative to [3H]verapamil ([3]; in ABCB1- and Abcb1a-transfected cells (both cell types)): 5 to 9 times

SMILES: CNC(=O)C(CCN1CCC(O)(c2ccc(Cl)cc2)CC1)(c1ccccc1)c1ccccc1 [[^11C]-N-desmethyl-loperamide]
- brain-to-blood concentration ratio (Kb,brain) ([4]; heterozygous Abcb1a/1b(+/−) mice): 1.54 ± 0.19
- increase in Kb,brain over vehicle treated wild-type mice ([4]; heterozygous Abcb1a/1b(+/−) mice, not significant): 1.1 fold
- brain-to-blood concentration ratio (Kb,brain) ([4]; vehicle treated C57BL/6N wild-type mice, end of PET scan (50–60 min), total radioactivity): 1.42 ± 0.16
- brain-to-blood concentration ratio (Kb,brain) ([4]; wild-type mice after 30 mg/kg tariquidar iv 2 h before PET): 2.58 ± 0.44
- blood radioactivity concentrations after tariquidar pretreatment compared to vehicle ([5]; C57BL/6N wild-type mice, end of PET scan): increased
- increase in Kb,brain over vehicle treated wild-type mice ([5]; homozygous Abcb1a/1b(−/−) mice): 2.8 fold
- brain-to-blood concentration ratio (Kb,brain) ([5]; vehicle treated homozygous Abcb1a/1b(−/−) mice): 3.93 ± 0.36
- percentage of non-protein bound radiotracer ([6]; with tariquidar (2400 nM)): 12.0 ± 1.0%
- percentage of non-protein bound radiotracer ([6]; without tariquidar): 14.5 ± 1.8%
- percentage of non-protein bound radiotracer [7]: 13.9 ± 0.7%
- percentage of unchanged radiotracer in brain [8]: 70 ± 11%
- percentage of unchanged radiotracer in plasma [8]: 18 ± 1%
- percentage of unchanged radiotracer in plasma ([8]; listed as [^11C]-N-Desmethyl-loperamide): 18 ± 1 ^d %
- Kb,brain fold increase, tariquidar vs vehicle ([9]; long anesthesia (160 min)): 4.0 fold
- Kp,brain fold increase, tariquidar vs vehicle ([9]; long anesthesia (160 min)): 3.7 fold
- Kp,brain,VPM or Kp,brain,dLOP fold increase, tariquidar vs vehicle ([9]; long anesthesia (160 min)): 18.3 fold
- Kp,brain for unchanged parent tracer (Kp,brain,VPM or Kp,brain,dLOP) ([9]; long anesthesia (160 min), tariquidar 15 mg/kg): 7.34 ± 0.58
- Kp,brain for unchanged parent tracer (Kp,brain,VPM or Kp,brain,dLOP) ([9]; long anesthesia (160 min), vehicle): 0.40 ± 0.16
- Kb,brain fold increase, tariquidar vs vehicle ([9]; short anesthesia (5 min)): 7.0 fold
- Kp,brain fold increase, tariquidar vs vehicle ([9]; short anesthesia (5 min)): 6.6 fold
- Kp,brain,VPM or Kp,brain,dLOP fold increase, tariquidar vs vehicle ([9]; short anesthesia (5 min)): 9.6 fold
- Kp,brain for unchanged parent tracer (Kp,brain,VPM or Kp,brain,dLOP) ([9]; short anesthesia (5 min), tariquidar 15 mg/kg): 4.85 ± 0.29 ^b
- Kp,brain for unchanged parent tracer (Kp,brain,VPM or Kp,brain,dLOP) ([9]; short anesthesia (5 min), vehicle): 0.51 ± 0.18
- Kb,brain fold increase, Abcb1a/1b(−/−) vs wild-type ([10]; awake): 13.8 fold
- Kp,brain fold increase, Abcb1a/1b(−/−) vs wild-type ([10]; awake): 13.7 fold
- Kp,brain ([10]; awake): 0.20 ± 0.05
- Kb,brain fold increase, Abcb1a/1b(−/−) vs wild-type ([10]; isoflurane): 5.7 fold
- Kp,brain fold increase, Abcb1a/1b(−/−) vs wild-type ([10]; isoflurane): 6.0 fold
- Kp,brain ([10]; isoflurane): 0.20 ± 0.04
- increase in distribution to the human brain following administration of tariquidar ([11]; humans, compared with PET scans without tariquidar ref 18-21): 2 to 5 times

SMILES: COc1cc2c(cc1OC)CN(CCc1ccc(NC(=O)c3cc(OC)c(OC)cc3NC(=O)c3cnc4ccccc4c3)cc1)CC2 [tariquidar]
- Hill slope, inhibition of [3H]-N-desmethyl-loperamide transport ([1]; Abcb1a-transfected cells): 1.3
- Hill slope, inhibition of [3H]verapamil transport ([1]; Abcb1a-transfected cells): 2.6
- pIC50 ([1]; IC50 of tariquidar for inhibition of [3H]-N-desmethyl-loperamide transport, Abcb1a-transfected LLC cells): 8.22
- pIC50 ([1]; IC50 of tariquidar for inhibition of [3H]verapamil transport, Abcb1a-transfected LLC cells): 7.75
- pIC50 [4]: 5.88
- Hill slope, Kb,brain of (R)-[11C]verapamil vs tariquidar plasma concentration ([4]; C57BL/6N wild-type mice): 2.98
- Hill slope, Kb,brain of [11C]-N-desmethyl-loperamide vs tariquidar plasma concentration ([4]; C57BL/6N wild-type mice): 1.44
- pIC50 ([4]; in vivo IC50 of tariquidar (plasma concentration) for increase in Kb,brain of (R)-[11C]verapamil, C57BL/6N wild-type mice, normalized to Abcb1a/1b(−/−) mice): 5.98
- pIC50 ([4]; unbound tariquidar in vivo IC50, (R)-[11C]verapamil, mice, in vivo IC50 corrected for plasma protein binding of tariquidar): 8.18
- pIC50 ([4]; unbound tariquidar in vivo IC50, [11C]-N-desmethyl-loperamide, mice, in vivo IC50 corrected for plasma protein binding of tariquidar): 8.08
- tariquidar plasma concentration (mean ± SD) [12]: 3.508 ± 0.427 µM
- tariquidar plasma concentration (range) [12]: 2802 to 3863 nM
- Hill slope, inhibition of [3H]-N-desmethyl-loperamide transport ([3]; ABCB1-transfected cells): 2.1
- Hill slope, inhibition of [3H]verapamil transport ([3]; ABCB1-transfected cells): 10.8
- pIC50 [13]: 6.19
- unbound fraction in human plasma [14]: 0.0063
- pIC50 ([15]; IC50 of tariquidar for inhibition of [3H]-N-desmethyl-loperamide transport): 8.05
- pIC50 ([15]; IC50 of tariquidar for inhibition of [3H]verapamil transport): 7.76
- pIC50 ([11]; read-out: in vivo IC50 of tariquidar for enhancement of brain distribution of (R)-[11C]verapamil, humans ref 19): 5.65
